Data from ChEMBL document CHEMBL1153164, “Synthesis and evaluation of 3'-azido-2',3'-dideoxypurine nucleosides as inhibitors of human immunodeficiency virus” (Bioorg Med Chem Lett, 2010).

How the values were obtained:
Vero = assay: Cytotoxicity against african green monkey Vero cells after 5 days; assay type: ADME, cell-based; conditions: Chlorocebus sabaeus, 120 h
CCRF-CEM = assay: Cytotoxicity against human CEM cells after 5 days; assay type: ADME, cell-based; conditions: 120 h
[1] = tested on: Human immunodeficiency virus 1; assay: Antiviral activity against HIV1 LAI infected in human PBM cells after 5 days; assay type: functional, organism-based; conditions: Human immunodeficiency virus 1, LAI, PBMC, 120 h
PBMC = assay: Cytotoxicity against human PBMC after 5 days; assay type: cell-based; conditions: 120 h

For `C#CCNc1nc(N)nc2c1ncn2[C@H]1C[C@H](N=[N+]=[N-])[C@@H](CO)O1`, the IC50 (Vero) was greater than 100 µM, the IC50 (CCRF-CEM) was greater than 100 µM and the EC50 [1] was 1.7 µM. For the same molecule, the EC90 [1] was 8.5 µM and the IC50 (PBMC) was greater than 100 µM.
In the case of `C=CCNc1ncnc2c1ncn2[C@H]1C[C@H](N=[N+]=[N-])[C@@H](CO)O1`, the IC50 (Vero) is reported as greater than 100 µM, the IC50 (CCRF-CEM) is reported as greater than 100 µM and the EC50 [1] is reported as 0.3 µM. The EC90 [1] was 1.5 µM and the IC50 (PBMC) was 51.1 µM.
Molecule `CC(CO)Nc1nc(N)nc2c1ncn2[C@H]1C[C@H](N=[N+]=[N-])[C@@H](CO)O1` (some centres not stated) has an IC50 (Vero) greater than 100 µM, an IC50 (CCRF-CEM) greater than 100 µM and an EC50 [1] of 59.9 µM. The EC90 [1] was greater than 10 µM and the IC50 (PBMC) was greater than 100 µM.
With `C=CCNc1nc(N)nc2c1ncn2[C@H]1C[C@H](N=[N+]=[N-])[C@@H](CO)O1` the IC50 (Vero) was greater than 100 µM, the IC50 (CCRF-CEM) was greater than 100 µM and the EC50 [1] was 0.5 µM. It also gave an EC90 [1] of 4.3 µM and an IC50 (PBMC) greater than 100 µM.
Work on `C=CCN(C)c1nc(N)nc2c1ncn2[C@H]1C[C@H](N=[N+]=[N-])[C@@H](CO)O1` yielded an IC50 (Vero) of 32 µM, an IC50 (CCRF-CEM) of 27 µM and an EC50 [1] of 0.4 µM. The EC90 [1] was 1.5 µM and the IC50 (PBMC) was greater than 100 µM.
Molecule `CC(C)(CO)Nc1nc(N)nc2c1ncn2[C@H]1C[C@H](N=[N+]=[N-])[C@@H](CO)O1` has an IC50 (Vero) greater than 100 µM, an IC50 (CCRF-CEM) greater than 100 µM and an EC50 [1] of 52.5 µM. The EC90 [1] was greater than 10 µM and the IC50 (PBMC) was greater than 100 µM.
With `COc1nc(NC2CC2)c2ncn([C@H]3C[C@H](N=[N+]=[N-])[C@@H](CO)O3)c2n1` the IC50 (Vero) was greater than 100 µM, the IC50 (CCRF-CEM) was greater than 100 µM and the EC50 [1] was 59.7 µM. For the same molecule, the EC90 [1] was greater than 100 µM and the IC50 (PBMC) was greater than 100 µM.
For `[N-]=[N+]=N[C@H]1C[C@H](n2cnc3c(N)nc(F)nc32)O[C@@H]1CO`, the IC50 (Vero) was 34.4 µM, the IC50 (CCRF-CEM) was 30.1 µM and the EC50 [1] was 45.8 µM. It also gave an EC90 [1] of 94.7 µM and an IC50 (PBMC) of 30.1 µM.
Molecule `COc1nc(F)nc2c1ncn2[C@H]1C[C@H](N=[N+]=[N-])[C@@H](CO)O1` has an IC50 (Vero) greater than 100 µM, an IC50 (CCRF-CEM) greater than 100 µM and an EC50 [1] greater than 100 µM. It also gave an EC90 [1] greater than 100 µM and an IC50 (PBMC) of 9.4 µM.
`COc1nc(OC)c2ncn([C@H]3C[C@H](N=[N+]=[N-])[C@@H](CO)O3)c2n1` showed an IC50 (Vero) greater than 100 µM, an IC50 (CCRF-CEM) greater than 100 µM and an EC50 [1] of 13.2 µM. The EC90 [1] was greater than 100 µM and the IC50 (PBMC) was greater than 100 µM.
`COc1nc(Cl)nc2c1ncn2[C@H]1C[C@H](N=[N+]=[N-])[C@@H](CO)O1` showed an IC50 (Vero) greater than 100 µM, an IC50 (CCRF-CEM) greater than 100 µM and an EC50 [1] of 55.3 µM. The EC90 [1] was greater than 100 µM and the IC50 (PBMC) was greater than 100 µM.
With `[N-]=[N+]=N[C@H]1C[C@H](n2cnc3c(N)nc(Cl)nc32)O[C@@H]1CO` the IC50 (Vero) was greater than 100 µM, the IC50 (CCRF-CEM) was greater than 100 µM and the EC50 [1] was 50.3 µM. It also gave an EC90 [1] greater than 100 µM and an IC50 (PBMC) of 35.8 µM.
`[N-]=[N+]=N[C@H]1C[C@H](n2cnc3c(NC4CC4)nc(Cl)nc32)O[C@@H]1CO` showed an IC50 (Vero) greater than 100 µM, an IC50 (CCRF-CEM) greater than 100 µM and an EC50 [1] of 15 µM. For the same molecule, the EC90 [1] was 51.5 µM and the IC50 (PBMC) was 35.3 µM.
`[N-]=[N+]=N[C@H]1C[C@H](n2cnc3c(NCCO)nc(N)nc32)O[C@@H]1CO` was tested, and the IC50 (Vero) was greater than 100 µM, the IC50 (CCRF-CEM) was greater than 100 µM and the EC50 [1] was 2.1 µM. It also gave an EC90 [1] of 16.2 µM and an IC50 (PBMC) greater than 100 µM.
For `[N-]=[N+]=N[C@H]1C[C@H](n2cnc3c(Cl)nc(F)nc32)O[C@@H]1CO`, the IC50 (Vero) was 21.8 µM, the IC50 (CCRF-CEM) was 13.3 µM and the EC50 [1] was 2.6 µM. It also gave an EC90 [1] of 10 µM and an IC50 (PBMC) of 7.2 µM.
In the case of `[N-]=[N+]=N[C@H]1C[C@H](n2cnc3c(NC4CC4)nc(N)nc32)O[C@@H]1CO`, the IC50 (Vero) is reported as greater than 100 µM, the IC50 (CCRF-CEM) is reported as greater than 100 µM and the EC50 [1] is reported as 1.5 µM. It also gave an EC90 [1] of 8.8 µM and an IC50 (PBMC) greater than 100 µM.
For `CN(C)c1nc(N)nc2c1ncn2[C@H]1C[C@H](N=[N+]=[N-])[C@@H](CO)O1`, the IC50 (Vero) was greater than 100 µM, the IC50 (CCRF-CEM) was greater than 100 µM and the EC50 [1] was 0.21 µM. For the same molecule, the EC90 [1] was 1.1 µM and the IC50 (PBMC) was greater than 100 µM.
For `[N-]=[N+]=N[C@H]1C[C@H](n2cnc3c(NCCCCCO)nc(N)nc32)O[C@@H]1CO`, the IC50 (Vero) was greater than 100 µM, the IC50 (CCRF-CEM) was greater than 100 µM and the EC50 [1] was 86.5 µM. It also gave an EC90 [1] greater than 10 µM and an IC50 (PBMC) greater than 100 µM.
In the case of `CN(C)c1nc(Cl)nc2c1ncn2[C@H]1C[C@H](N=[N+]=[N-])[C@@H](CO)O1`, the IC50 (Vero) is reported as greater than 100 µM, the IC50 (CCRF-CEM) is reported as greater than 100 µM and the EC50 [1] is reported as greater than 100 µM. The EC90 [1] was greater than 100 µM and the IC50 (PBMC) was greater than 100 µM.
In the case of `CNc1nc(Cl)nc2c1ncn2[C@H]1C[C@H](N=[N+]=[N-])[C@@H](CO)O1`, the IC50 (Vero) is reported as greater than 100 µM, the IC50 (CCRF-CEM) is reported as greater than 100 µM and the EC50 [1] is reported as greater than 100 µM. The EC90 [1] was greater than 100 µM and the IC50 (PBMC) was greater than 100 µM.
For `COc1nc(N)c2ncn([C@H]3C[C@H](N=[N+]=[N-])[C@@H](CO)O3)c2n1`, the IC50 (Vero) was greater than 100 µM, the IC50 (CCRF-CEM) was greater than 100 µM and the EC50 [1] was 12.4 µM. For the same molecule, the EC90 [1] was 39.6 µM and the IC50 (PBMC) was 35 µM.
In the case of `[N-]=[N+]=N[C@H]1C[C@H](n2ccc(=O)[nH]c2=O)O[C@@H]1CO` [NAVURIDINE], the IC50 (Vero) is reported as 26 µM, the IC50 (CCRF-CEM) is reported as 69.3 µM and the EC50 [1] is reported as 0.16 µM. It also gave an EC90 [1] of 0.6 µM and an IC50 (PBMC) greater than 100 µM.
`Cc1cn([C@H]2C[C@H](N=[N+]=[N-])[C@@H](CO)O2)c(=O)[nH]c1=O` [ZIDOVUDINE] gave an EC90 [1] of 0.02 µM and an IC50 (PBMC) greater than 100 µM.
